Source: a melting point compilation (Tetko et al.; mined from patent text by program, amines drawn as free bases though some values may be those of a salt)

SMILES	melting point
CN(C)c1nc(Br)cnc1NS(=O)(=O)c1cccc2c(N(C)C)cccc12	180 to 182 °C
CCOC(=O)CC1CCc2c(sc3c(Cl)cccc23)C1 (centres undefined)	51 to 53 °C
CNC(=O)[C@@H]1C=CCN1C(=O)OC(C)(C)C	47 to 48 °C
CN(C)C(=O)Oc1cccc(-c2cc(=O)c3cc(N(C)C)ccc3o2)c1	167 to 168 °C
COc1cc(C(=O)N2CCN(C(=O)C=C(c3ccccc3)c3ccccc3)CC2)cc(OC)c1OC	148 to 150 °C
C=Cc1ccc(CN2CCNCCNCC2)cc1	56 to 59 °C
COc1ccc2c(c1)CCCC2n1cc[nH]c1=S (centres undefined)	190 to 192 °C
Cc1c(C2CCC(c3cccs3)(N(C)C)CC2)[nH]c2ccccc12 (centres undefined)	191 to 197 °C
COCC(=O)c1cnc(C2OCCO2)s1	65 to 66 °C
COC1=CC2=C(CN1OC)C1=C(c3cc4c(cc3C1=O)OCO4)C(CCCC(C)O)C2=O (centres undefined)	288 to 290 °C
O=C(C(=O)c1ccc(C#Cc2ccccc2)cc1)c1ccc(C#Cc2ccccc2)cc1	168 to 170 °C
O=C(c1nnc(-c2ccccc2)o1)N1CC(Oc2ccc(CN3CC4(COC4)C3)c(Cl)c2)C1	114 to 124 °C
O=C(Nc1ccccc1)C1CCNCC1	121 to 127 °C
CCOC(=O)c1c(C(F)(F)C(F)(F)F)[nH]c(C(F)(F)C(F)(F)F)c1C(=O)OCC	64.5 to 65.5 °C
CC#CC1(O)CCC2C3CCC4=CC(=O)CCC4C3C(=CF)CC21CC (centres undefined)	199 to 205 °C
CCOC(=O)c1cn(C)nc1OCc1ccc(OCc2nc(-c3ccco3)oc2C)c(OC)c1	117 to 118 °C
CCCCCC1OCc2cc(C(N)=O)ccc2O1 (centres undefined)	162 to 163 °C
Cn1ncc(C(=O)O)c1C(=O)Nc1ccn2nc(Br)nc2c1	> 250 °C
CCCC(=O)NN=C(C)c1ccncc1Cl	104 °C
CN(CC[C@H]1CC[C@H](C(=O)O)CC1)C(=O)OC(C)(C)C	212 to 214 °C
Cc1ccccc1[C@H]1CC[C@@H](c2ccccc2)N1C(=O)CNC(=O)Nc1cccc(CC(=O)O)c1 (racemic)	133 °C
NS(=O)(=O)C=Cc1ccc(Cl)c(Cl)c1	127 to 130 °C
Cc1ccc2c3c(c(=O)oc2c1)CN(CCN1CC2CCC(CC2)C1)CC3	155 to 157 °C
Cc1ccc2c(c1)CC1(CCC(=O)CC1)C21OCCO1	124 to 127 °C
Nc1ccc2ncc(Br)cc2n1	168 to 169 °C
Cc1nn(C)c(CBr)c1Oc1cc(Cl)cc(C#N)c1	76 to 78 °C

Further lines, results first:

melting point	SMILES
236 to 238 °C	CCNC1=NS(=O)(=O)c2cccc(F)c21
135 to 138 °C	CC=CCn1c(C)c(C)c2cnnc(NCc3ccc(F)cc3)c21
240 to 241 °C	CC(C)CN1C(=O)C(NC(=O)c2cc3ccccc3[nH]2)N=C(N2CCCCCC2)c2ccccc21 (single isomer, unassigned; (-))
164 to 166 °C	COc1ccc2c(=O)c(CO)cn(C)c2c1
165 to 167 °C	CCN(CC)CCOc1nc2ccccc2n(-c2ccc(Cl)cc2)c1=O
193 to 195 °C	Fc1cccc2cc3cccc(F)c3nc12
141 to 143 °C	CCOC(=O)c1c(O)c2cc(Cl)ccc2n(C)c1=O
99 to 100 °C	CC(C)(C)OC(=O)Cn1c(=O)n(Cc2ccccc2)c2ccccc21
80 to 82 °C	CC(=O)c1ccc2c(c1)CCC(=O)CO2
189 °C	COC(=O)c1ccc(Cn2c(=O)c3cc(C(=O)NCc4ccc(OC)cc4)ccc3n(C)c2=O)cc1
216 to 218 °C	Cc1ncc2c(c1C(=O)O)COc1ccccc1C2=O
230 to 232 °C	N#Cc1cn(-c2ccc(C(F)(F)F)cc2)c(=O)[nH]c1=O
165 °C	O=[N+]([O-])c1ccc(NC(CO)(CO)CO)cc1
188 to 190 °C	Cc1cc2ncn(C)c(=O)c2s1
273 to 274 °C	CC(C)OC(=O)c1cc2c(cn1)[nH]c1cccc(Oc3ccc(Cl)cc3)c12
135 to 137 °C	Fc1ccc(CCCC(c2ccc(F)cc2)c2c[nH]cn2)cc1 (centres undefined)
145 °C	CS(=O)(=O)OCCn1c(=NC(=O)C(F)(F)F)sc2cc(OC(F)(F)F)ccc21
144 to 146 °C	O=C(Cn1ccnc1)c1ccc(-c2ccncc2)cc1
222 to 223 °C	COc1ccc(Cl)c(S(=O)(=O)NC(=O)c2nc3c(Cl)cc(C(F)(F)F)cn3c2C)c1
114 °C	Cc1cc(-c2cc(C(F)(F)F)n3nccc3n2)ccc1Cl
132 to 134 °C	CC1CC(=O)NN=C1c1cccc(C(F)(F)F)c1 (centres undefined)
228 to 230 °C	N#Cc1cc2cc(Br)ccc2nc1Cl
214 to 216 °C	COc1ccccc1NC(=O)NCc1cccc2c1C(=O)N(C1CCC(=O)NC1=O)C2=O (centres undefined)
134 °C	CC(C)(C)OC(=O)NN=C(c1ccccc1)c1ccncc1
117 to 118 °C	CCCOc1ccc(Br)cc1-c1nc2c(CCC)nn(C)c2c(=O)[nH]1
235 to 237 °C	CC(C)(C)c1cc2c(c(-c3nc4ccc(S(=O)(=O)C(F)(F)F)cc4c(=O)[nH]3)c1O)CCO2
150 to 153 °C	CCOc1cc(=O)oc2cc(CBr)ccc12
236 to 237 °C	CN1c2ccccc2Sc2cn(C)c(=O)c(C#N)c21
